Consider 5 compounds from ChEMBL document CHEMBL1201862, “PubChem BioAssay data set” (2004).

Test [1] has as its target Nuclear receptor subfamily 0 group B member 1 (Homo sapiens, UniProt P51843). Put plainly: Luminescence-based cell-based high throughput dose response assay for inhibitors of the orphan nuclear receptor subfamily 0, group B, member 1 (DAX1; NR0B1). [Related pubchem assays (depositor defined):AID504766, AID504790]. It counts as functional.
In test [2] the test system is HEK293. In words: cells. It is filed as functional, cell-based. The note with it: Homo sapiens.
For test [3], the target named is Induced myeloid leukemia cell differentiation protein Mcl-1 (Homo sapiens, UniProt Q07820). It is filed as functional.
Test [4] addresses E3 ubiquitin-protein ligase Mdm2 (Homo sapiens, UniProt Q00987). In words: MDM2-luc reporter signal enhancers, multi-concentration potency testing, MDM2 ubiquitin-protein ligase inhibitor program, whole-cell format, luminescence detection, 384-well microplate (AID 1394).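 Note: MDM2 E3 inhibitors raise luminescence so EC50 is for signal enhancement.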 It counts as functional.
Test [5] deals with Vero. Put plainly: viability of Vero cells under compound – cytotoxicity control for flavivirus capping enzyme inhibitors (AID 588742). It counts as functional. The note with it: Chlorocebus sabaeus.
In test [6] the target is Beta-arrestin-1 (Homo sapiens, UniProt P49407). In words: beta-arrestin/AP2 interaction blockers, potency – biochemical, cherry pick 1, beta2-adaptin appendage, flow cytometry, dose response (AID 588783). It is filed as functional. Background: In flow cytometry, cells or beads pass a laser one at a time.
Test [7] can be described thus: viability loss in HeLa cells – cytotoxicity control for MgcRacGAP inhibitor project, dose response (AID 624300). It is filed as functional.
Test [8] addresses Genome polyprotein (dengue virus type 2, UniProt P29990). In words: flavivirus cap methylation enzyme inhibition – biochemical, confirmation dose response, primary screen (AID 588689). It is filed as functional.
The nature of test [9]: viability loss in THP-1 monocytes – THP-1 cells, cytotoxicity control for Vif-APOBEC3G degradation inhibitor project, dose response (AID 1117359). The note with it: THP-1. It counts as functional.
Test [10] deals with Mu-type opioid receptor (Homo sapiens, UniProt P35372). Put plainly: Counterscreen for agonists of heterodimerization of the mu 1 (OPRM1) and delta 1 (OPRD1) opioid receptors: Luminescence-based cell-based high throughput dose response assay to identify agonists of OPRM1 homodimerization. It counts as functional.
The target in test [11] is 5-hydroxytryptamine receptor 5A (Homo sapiens, UniProt P47898). In words: Counterscreen for agonists of OPRM1-OPRD1 heterodimerization: luminescence-based cell-based high throughput dose response assay to identify agonists of 5-hydroxytryptamine (serotonin) 5A receptor (HTR5A). [Related pubchem assays (depositor defined):AID504326, AID504355, AID504692, AID504904, AID504905]. It counts as functional. (In general: Counterscreens check selectivity or assay interference.)

In test [12] the target is Delta-type opioid receptor (Homo sapiens, UniProt P41143). In words: Counterscreen for agonists of heterodimerization of the mu 1 (OPRM1) and delta 1 (OPRD1) opioid receptors: Luminescence-based cell-based high throughput dose response assay to identify agonists of OPRD1 homodimerization. [Related pubchem assays (depositor defined):AID504326, AID504355, AID504692, AID504904, AID504905]. It counts as functional.

The target of test [13] is T1, Caspase-6 (Homo sapiens, UniProt P55212).
T1 sequence (P55212 whole entry): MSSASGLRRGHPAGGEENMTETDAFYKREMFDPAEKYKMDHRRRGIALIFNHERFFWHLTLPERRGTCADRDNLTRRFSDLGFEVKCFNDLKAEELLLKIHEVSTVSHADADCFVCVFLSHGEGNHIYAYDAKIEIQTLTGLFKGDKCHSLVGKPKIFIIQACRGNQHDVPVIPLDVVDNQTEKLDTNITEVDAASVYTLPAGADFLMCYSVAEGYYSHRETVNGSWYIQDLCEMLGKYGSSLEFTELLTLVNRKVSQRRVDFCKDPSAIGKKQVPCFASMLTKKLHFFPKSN
Put plainly: inhibition of CASP6 peptide cleavage – biochemical, VEID-R110 fluorescence, cherry-pick, dose response (AID 720632).

In test [14] the target is Caspase-7 (Homo sapiens, UniProt P55210). In words: caspase-7 enzyme inhibition, selectivity check – biochemical, DEVD-R110 fluorescence, cherry-pick, selectivity assay for caspase-6 inhibitor project, dose response (AID 743295). It counts as functional.
In test [15] the target is T2, Carboxy-terminal domain RNA polymerase II polypeptide A small phosphatase 1 (Homo sapiens, UniProt Q9GZU7).
T2 sequence (Q9GZU7 whole entry): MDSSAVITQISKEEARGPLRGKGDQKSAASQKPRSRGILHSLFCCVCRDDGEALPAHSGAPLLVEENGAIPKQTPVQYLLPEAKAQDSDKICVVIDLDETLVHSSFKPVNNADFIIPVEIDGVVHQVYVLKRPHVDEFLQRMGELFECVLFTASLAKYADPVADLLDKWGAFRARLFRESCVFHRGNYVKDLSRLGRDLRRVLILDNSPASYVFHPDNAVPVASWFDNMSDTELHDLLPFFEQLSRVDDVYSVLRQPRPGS
Put plainly: CTDSP1 inhibitors, concentration-response, biochemical, absorbance readout, ultra-high-throughput screen actives (AID 540297). It is filed as functional.

For test [16], the target named is Beta-adrenergic receptor kinase 1 (Homo sapiens, UniProt P25098). In words: aptamer displacement from bead-bound GRK2 – biochemical, cherry pick 1, bead flow cytometry, dose response (AID 504500).
Test [17] addresses Caspase-8 (Homo sapiens, UniProt Q14790). In words: inhibitors of purified CASP8 protease – biochemical, Z-IETD-R110 fluorescence, cherry-picked samples, selectivity assay for caspase-6 inhibitor project, dose response (AID 743294).
Test [18] addresses T3, Hexokinase HKDC1 (Homo sapiens, UniProt Q2TB90).
T3 sequence (Q2TB90 whole entry): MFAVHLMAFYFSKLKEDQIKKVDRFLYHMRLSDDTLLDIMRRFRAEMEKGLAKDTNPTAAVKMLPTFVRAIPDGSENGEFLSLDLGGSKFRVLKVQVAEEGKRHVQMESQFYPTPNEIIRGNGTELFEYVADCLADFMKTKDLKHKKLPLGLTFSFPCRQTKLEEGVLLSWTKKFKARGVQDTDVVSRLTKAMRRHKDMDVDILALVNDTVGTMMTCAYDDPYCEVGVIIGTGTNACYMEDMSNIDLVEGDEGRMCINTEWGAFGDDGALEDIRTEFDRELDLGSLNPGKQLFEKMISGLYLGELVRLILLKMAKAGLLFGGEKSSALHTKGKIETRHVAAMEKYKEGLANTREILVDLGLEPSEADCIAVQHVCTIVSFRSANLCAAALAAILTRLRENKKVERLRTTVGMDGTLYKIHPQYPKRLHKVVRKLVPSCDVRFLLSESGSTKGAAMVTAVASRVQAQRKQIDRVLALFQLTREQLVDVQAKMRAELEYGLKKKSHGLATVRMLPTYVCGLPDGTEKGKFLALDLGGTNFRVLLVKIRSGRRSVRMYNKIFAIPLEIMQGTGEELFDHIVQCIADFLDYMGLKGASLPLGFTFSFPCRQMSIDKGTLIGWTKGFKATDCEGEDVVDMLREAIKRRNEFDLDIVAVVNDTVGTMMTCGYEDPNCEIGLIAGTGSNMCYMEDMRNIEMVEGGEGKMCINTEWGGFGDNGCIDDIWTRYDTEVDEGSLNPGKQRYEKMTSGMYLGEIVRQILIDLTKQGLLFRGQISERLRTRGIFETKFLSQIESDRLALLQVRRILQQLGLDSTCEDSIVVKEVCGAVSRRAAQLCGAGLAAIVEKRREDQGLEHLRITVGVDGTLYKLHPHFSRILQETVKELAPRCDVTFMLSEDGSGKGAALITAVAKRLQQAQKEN
In words: SAR analysis of small molecule inhibitors of hexokinase domain containing I (HKDC1). [Related pubchem assays (depositor defined):AID493160, AID493190]. It counts as functional.

Test [19] has as its target T4, Hexokinase-1 (Homo sapiens, UniProt P19367).
T4 sequence (P19367 whole entry): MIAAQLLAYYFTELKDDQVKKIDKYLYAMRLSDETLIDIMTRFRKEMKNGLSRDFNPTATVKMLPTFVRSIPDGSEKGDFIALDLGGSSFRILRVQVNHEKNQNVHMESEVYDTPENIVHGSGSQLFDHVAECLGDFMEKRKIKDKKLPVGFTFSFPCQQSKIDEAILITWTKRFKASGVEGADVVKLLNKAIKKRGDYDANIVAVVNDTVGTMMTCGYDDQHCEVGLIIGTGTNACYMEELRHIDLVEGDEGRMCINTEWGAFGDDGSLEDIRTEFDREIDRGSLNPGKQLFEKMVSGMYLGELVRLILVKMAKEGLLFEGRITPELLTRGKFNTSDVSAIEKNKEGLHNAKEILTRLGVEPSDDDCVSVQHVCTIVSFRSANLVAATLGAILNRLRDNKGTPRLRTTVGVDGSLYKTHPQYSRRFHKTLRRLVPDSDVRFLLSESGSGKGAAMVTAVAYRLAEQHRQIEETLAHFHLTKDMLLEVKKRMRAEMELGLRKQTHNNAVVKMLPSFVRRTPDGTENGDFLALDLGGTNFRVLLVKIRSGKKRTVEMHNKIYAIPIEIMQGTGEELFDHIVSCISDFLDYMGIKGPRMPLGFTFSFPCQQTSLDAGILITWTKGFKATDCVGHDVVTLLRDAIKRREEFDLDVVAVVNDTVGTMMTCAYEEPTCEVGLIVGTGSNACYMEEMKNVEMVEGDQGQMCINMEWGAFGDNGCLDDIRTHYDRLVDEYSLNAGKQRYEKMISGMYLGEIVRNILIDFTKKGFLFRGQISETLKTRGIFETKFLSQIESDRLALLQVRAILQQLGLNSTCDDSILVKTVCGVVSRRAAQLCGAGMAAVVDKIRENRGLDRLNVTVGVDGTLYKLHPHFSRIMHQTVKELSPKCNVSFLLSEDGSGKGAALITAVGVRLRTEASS
In words: SAR analysis of small molecule inhibitors of hexokinase domain containing I (HKDC1) in the hexokinase 1 selectivity assay. [Related pubchem assays (depositor defined):AID493160, AID493190]. It counts as functional.

Calls of active or inactive are those of the source.

Sequence of Induced myeloid leukemia cell differentiation protein Mcl-1 (Q07820 whole entry): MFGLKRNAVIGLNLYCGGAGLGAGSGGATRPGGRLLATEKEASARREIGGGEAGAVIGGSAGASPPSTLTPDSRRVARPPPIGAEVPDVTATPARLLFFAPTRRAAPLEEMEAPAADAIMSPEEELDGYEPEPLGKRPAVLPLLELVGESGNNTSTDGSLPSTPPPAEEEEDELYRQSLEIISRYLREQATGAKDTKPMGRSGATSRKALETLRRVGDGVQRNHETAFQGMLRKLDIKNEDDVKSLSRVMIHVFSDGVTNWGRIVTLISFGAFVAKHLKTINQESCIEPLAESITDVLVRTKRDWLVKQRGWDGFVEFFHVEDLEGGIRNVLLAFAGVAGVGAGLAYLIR
Sequence of Caspase-8 (Q14790 217-374 limits assumed): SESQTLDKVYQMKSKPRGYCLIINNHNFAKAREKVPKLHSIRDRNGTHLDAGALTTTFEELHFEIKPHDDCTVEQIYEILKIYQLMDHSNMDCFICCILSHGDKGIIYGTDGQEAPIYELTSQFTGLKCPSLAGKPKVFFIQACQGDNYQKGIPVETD
Sequence of Caspase-8 (Q14790 385-479 limits assumed): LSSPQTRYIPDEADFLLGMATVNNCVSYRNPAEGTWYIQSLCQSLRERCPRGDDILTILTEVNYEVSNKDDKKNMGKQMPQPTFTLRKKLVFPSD
Sequence of Genome polyprotein (P29990 2492-3391 limits assumed): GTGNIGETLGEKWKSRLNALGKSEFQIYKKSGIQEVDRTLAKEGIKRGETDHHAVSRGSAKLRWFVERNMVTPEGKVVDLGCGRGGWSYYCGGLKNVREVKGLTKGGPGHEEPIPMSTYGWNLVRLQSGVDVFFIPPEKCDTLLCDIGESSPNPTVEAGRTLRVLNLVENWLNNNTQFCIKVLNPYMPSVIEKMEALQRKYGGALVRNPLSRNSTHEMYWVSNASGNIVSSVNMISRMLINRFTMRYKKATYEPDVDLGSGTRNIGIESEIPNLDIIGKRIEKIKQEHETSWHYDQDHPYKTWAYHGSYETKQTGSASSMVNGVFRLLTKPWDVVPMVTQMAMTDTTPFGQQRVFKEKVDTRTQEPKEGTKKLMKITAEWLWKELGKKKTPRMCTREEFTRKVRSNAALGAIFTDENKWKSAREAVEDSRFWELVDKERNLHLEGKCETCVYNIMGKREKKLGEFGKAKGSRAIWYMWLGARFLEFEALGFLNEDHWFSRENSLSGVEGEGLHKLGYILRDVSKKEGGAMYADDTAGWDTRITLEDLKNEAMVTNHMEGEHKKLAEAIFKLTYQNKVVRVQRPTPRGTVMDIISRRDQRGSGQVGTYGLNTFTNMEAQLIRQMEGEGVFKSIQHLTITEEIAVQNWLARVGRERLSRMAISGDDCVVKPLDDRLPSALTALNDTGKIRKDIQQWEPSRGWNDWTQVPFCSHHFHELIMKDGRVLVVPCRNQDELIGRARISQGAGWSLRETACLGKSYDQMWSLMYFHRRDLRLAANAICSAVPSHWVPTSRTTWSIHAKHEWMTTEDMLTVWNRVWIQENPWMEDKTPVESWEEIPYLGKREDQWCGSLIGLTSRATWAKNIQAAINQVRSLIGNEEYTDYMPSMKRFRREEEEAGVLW
Sequence of Nuclear receptor subfamily 0 group B member 1 (P51843 whole entry): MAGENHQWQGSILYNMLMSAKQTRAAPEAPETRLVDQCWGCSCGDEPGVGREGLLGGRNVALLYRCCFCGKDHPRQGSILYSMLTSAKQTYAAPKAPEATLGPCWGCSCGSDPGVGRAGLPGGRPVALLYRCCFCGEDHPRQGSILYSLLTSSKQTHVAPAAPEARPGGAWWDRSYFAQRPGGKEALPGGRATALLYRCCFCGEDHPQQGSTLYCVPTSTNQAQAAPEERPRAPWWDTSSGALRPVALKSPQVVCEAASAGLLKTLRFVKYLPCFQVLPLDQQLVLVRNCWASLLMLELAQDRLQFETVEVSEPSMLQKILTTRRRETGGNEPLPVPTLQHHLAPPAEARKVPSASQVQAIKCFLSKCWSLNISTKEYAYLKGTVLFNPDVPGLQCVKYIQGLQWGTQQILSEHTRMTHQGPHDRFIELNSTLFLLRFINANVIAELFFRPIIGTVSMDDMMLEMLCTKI
Sequence of E3 ubiquitin-protein ligase Mdm2 (Q00987 whole entry): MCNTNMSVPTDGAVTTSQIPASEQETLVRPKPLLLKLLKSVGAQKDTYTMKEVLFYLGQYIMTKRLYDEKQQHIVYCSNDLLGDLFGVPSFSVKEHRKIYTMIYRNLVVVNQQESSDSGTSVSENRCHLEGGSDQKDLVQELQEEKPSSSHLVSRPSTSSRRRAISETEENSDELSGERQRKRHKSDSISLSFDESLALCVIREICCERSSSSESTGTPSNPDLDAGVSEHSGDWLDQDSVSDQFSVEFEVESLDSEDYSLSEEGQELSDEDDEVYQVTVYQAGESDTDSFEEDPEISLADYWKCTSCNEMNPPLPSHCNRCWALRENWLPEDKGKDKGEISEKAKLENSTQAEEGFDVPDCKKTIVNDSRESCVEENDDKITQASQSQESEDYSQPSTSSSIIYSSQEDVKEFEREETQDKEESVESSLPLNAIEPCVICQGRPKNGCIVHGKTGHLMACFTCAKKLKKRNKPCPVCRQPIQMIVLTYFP
Sequence of Caspase-7 (P55210 24-198 limits assumed): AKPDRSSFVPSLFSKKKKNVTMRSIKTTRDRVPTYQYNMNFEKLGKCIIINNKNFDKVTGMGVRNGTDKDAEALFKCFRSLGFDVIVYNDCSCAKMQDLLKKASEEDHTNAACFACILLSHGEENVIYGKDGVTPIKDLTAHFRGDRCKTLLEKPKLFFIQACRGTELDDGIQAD
Sequence of Caspase-7 (P55210 207-303 limits assumed): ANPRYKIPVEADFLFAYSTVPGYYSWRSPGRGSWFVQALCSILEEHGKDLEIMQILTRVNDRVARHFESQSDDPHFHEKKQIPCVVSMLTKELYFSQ
Sequence of Beta-adrenergic receptor kinase 1 (P25098 whole entry): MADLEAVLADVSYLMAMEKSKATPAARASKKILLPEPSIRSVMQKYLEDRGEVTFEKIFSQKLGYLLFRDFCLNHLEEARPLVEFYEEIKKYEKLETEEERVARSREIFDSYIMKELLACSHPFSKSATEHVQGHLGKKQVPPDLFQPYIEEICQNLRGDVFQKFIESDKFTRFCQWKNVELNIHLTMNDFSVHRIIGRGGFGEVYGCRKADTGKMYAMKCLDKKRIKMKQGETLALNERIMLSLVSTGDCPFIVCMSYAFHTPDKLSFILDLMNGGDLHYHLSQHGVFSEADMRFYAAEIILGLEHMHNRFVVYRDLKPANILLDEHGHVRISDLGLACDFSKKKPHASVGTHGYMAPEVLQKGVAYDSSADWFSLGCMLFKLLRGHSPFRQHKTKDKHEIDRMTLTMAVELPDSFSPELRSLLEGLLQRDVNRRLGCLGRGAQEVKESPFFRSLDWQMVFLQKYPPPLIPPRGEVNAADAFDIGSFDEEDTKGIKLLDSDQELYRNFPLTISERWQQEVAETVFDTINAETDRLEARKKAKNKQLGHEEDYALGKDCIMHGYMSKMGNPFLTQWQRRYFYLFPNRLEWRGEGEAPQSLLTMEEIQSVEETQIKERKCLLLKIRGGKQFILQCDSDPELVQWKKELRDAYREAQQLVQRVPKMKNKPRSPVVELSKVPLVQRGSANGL
Sequence of Beta-arrestin-1 (P49407 whole entry): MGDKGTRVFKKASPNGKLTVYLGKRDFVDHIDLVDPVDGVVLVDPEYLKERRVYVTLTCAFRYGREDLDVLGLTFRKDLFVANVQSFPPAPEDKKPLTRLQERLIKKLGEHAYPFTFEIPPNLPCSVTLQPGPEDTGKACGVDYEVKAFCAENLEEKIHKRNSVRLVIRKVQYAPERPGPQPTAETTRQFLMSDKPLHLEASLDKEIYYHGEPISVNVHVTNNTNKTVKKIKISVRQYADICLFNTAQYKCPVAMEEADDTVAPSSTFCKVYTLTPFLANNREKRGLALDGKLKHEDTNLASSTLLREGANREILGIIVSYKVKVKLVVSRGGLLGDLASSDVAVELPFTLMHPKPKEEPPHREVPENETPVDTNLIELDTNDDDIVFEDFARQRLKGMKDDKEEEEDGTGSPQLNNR
Sequence of Delta-type opioid receptor (P41143 whole entry): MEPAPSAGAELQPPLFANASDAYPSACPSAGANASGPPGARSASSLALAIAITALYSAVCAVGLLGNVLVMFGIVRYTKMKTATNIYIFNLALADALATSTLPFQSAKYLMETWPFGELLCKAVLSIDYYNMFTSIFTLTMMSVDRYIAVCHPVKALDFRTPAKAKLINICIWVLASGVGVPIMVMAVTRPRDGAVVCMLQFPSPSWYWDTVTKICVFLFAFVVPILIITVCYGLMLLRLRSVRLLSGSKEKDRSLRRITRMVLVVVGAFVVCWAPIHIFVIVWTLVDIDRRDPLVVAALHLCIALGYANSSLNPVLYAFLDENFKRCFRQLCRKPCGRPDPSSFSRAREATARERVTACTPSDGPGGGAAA
Sequence of Mu-type opioid receptor (P35372 whole entry): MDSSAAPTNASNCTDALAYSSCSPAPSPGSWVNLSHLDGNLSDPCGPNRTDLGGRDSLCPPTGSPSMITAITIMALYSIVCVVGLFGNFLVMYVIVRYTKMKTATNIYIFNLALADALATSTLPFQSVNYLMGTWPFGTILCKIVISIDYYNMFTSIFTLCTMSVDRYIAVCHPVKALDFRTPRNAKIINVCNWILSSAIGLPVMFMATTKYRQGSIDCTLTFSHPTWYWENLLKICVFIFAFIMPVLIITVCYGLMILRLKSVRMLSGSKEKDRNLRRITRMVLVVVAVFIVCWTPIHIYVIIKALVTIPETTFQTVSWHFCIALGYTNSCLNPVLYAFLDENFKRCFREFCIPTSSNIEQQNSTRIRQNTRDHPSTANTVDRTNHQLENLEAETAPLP

`COc1ccccc1NC(=O)Nc1ccc2c(c1)OCCO2`: the IC50 in test [1] and in test [2] was > 67.5 µM (inactive) in each case.
Turning to `Cc1cccc2c1c1ccc3c(c1n2C)C(=O)C=CC3=O`, the IC50 in [3] was 3.22 µM (active); in [6] it was 7.34 µM (active); in [8], 33.5 µM (active). Moreover, in [4], the EC50 is 1.03 µM (active). In addition, the CC50 was 34.7 µM (active) in test [5], 100 µM (active) in test [7] and 14.1 µM (active) in [9].
`Cc1c(CCOC(=O)c2ccccc2)sc[n+]1CC(=O)c1ccc(Br)cc1`: the EC50 in test [10], in test [11] and in test [12] was > 92.5 µM (inactive) throughout.
In the case of `CCCN(C(=O)c1cccc(-n2cccc2)c1)c1c(N)n(Cc2ccccc2)c(=O)[nH]c1=O`, the AC50 in test [13] is 3.75 µM (active); in [14], > 70 µM (inactive); in test [17] it was 58.8 µM (active). Further, in [15], the IC50 is 6.44 µM (active). Also, the EC50 in test [16] is 720 nM (active).
Turning to `O=c1c2ccccc2nc(/C=C/c2ccc3c(c2)OCO3)n1Cc1ccccc1`, the IC50 in [18] and in test [19] was > 80 µM (inactive) in each case.

What is called IC50 is the point on the concentration scale where inhibition reaches its midpoint. Broadly, the EC50 is the midpoint of the concentration-response curve. One may read the CC50 as the concentration at which the toxic effect on the cells reaches its halfway point. By AC50 is commonly meant the concentration at which the activity in the assay is half-maximal.
